# From patent US20260022142A1, “MACROCYCLIC IMMUNOMODULATORS” (Bristol-Myers Squibb Company, priority 2022, published 2026)
# Numbered stars: 1 amine (or outer) side, 2 acyl side, 3 side chain; on linkers, the order of the positions; unused ones are H or OH. Bridge positions count the residues as written; N and C are the ends. Square brackets hold non-standard residues; d marks the D form. Peptide text beside a SMILES is read from it. * marks the point of attachment. ξ: configuration not given here. Phe(3-CF3) = N[C@@H](Cc1cccc(C(F)(F)F)c1)C(=O)O; Ala(morpholin-4-yl) = N[C@@H](CN1CCOCC1)C(=O)O; Phe(4-COOH) = N[C@@H](Cc1ccc(C(=O)O)cc1)C(=O)O; Bip = N[C@@H](Cc1ccc(-c2ccccc2)cc1)C(=O)O; NH(CH2)14COOH = O=C(O)CCCCCCCCCCCCCCN*; Phe(3-Me) = Cc1cccc(C[C@H](N)C(=O)O)c1; Abu(3S-NH2) = C[C@H](N)[C@H](N)C(=O)O; βAsp = O=C(O)[C@H](CC(=O)[*:2])N[*:1]; NH(CH2)12COOH = O=C(O)CCCCCCCCCCCCN*; Val(3-OH) = CC(C)(O)[C@H](N)C(=O)O; hArg = N=C(N)NCCCC[C@H](N)C(=O)O; Cha = N[C@@H](CC1CCCCC1)C(=O)O; Cit = NC(=O)NCCC[C@H](N)C(=O)O; Thr(3ξ) = CC(O)[C@H](N)C(=O)O; PEG4 = NCCOCCOCCOCCOCCC(=O)O; Carboxymethyl = O=C(O)C*; Orn = NCCC[C@H](N)C(=O)O; Dab = NCC[C@H](N)C(=O)O; Nva = CCC[C@H](N)C(=O)O; Dap = NC[C@H](N)C(=O)O; AEEA = NCCOCCOCC(=O)O
# Molecular target: T1, PD-1/PD-L1 interaction (PE-labeled human PD-L1-Ig binding to Jurkat cell line over-expressing human PD-1) (Homo sapiens, UniProt Q15116)
# T1 construct: expressed in transfected cells; host or cells: Jurkat
# Test: Jurkat-PD-1 Cell Binding High-Content Screening Assay (CBA)
# Format: cell-based
# Settings: Jurkat cell line over-expressing human PD-1; PE-labeled PD-L1-Ig 20 nM final; read-out: Jurkat hPD1-PDL1 IC50
# Summary of the method: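 Read-out is high-content imaging of cell-bound phycoerythrin-tagged PD-L1-Ig on fixed, Hoechst-counterstained Jurkat cells that over-express human PD-1. Compound exposure lasts 2 h at 37° C before the labeled ligand (20 nM final) is added for a further hour.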
# T1 sequence (Q15116 25-288): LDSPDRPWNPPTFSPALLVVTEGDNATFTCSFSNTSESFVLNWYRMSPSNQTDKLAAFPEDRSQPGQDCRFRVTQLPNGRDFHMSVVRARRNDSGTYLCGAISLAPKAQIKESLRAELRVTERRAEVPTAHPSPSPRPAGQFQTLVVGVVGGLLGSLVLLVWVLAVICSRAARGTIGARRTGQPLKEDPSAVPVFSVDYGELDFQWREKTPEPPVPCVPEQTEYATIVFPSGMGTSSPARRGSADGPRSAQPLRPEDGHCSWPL
row,IC50,Compound
1,27.8 nM,CC(C)C[C@H]1NC(=O)[C@H](CCCN)NC(=O)[C@H](Cc2ccc(C(=O)O)cc2)NC(=O)[C@H](Cc2ccc(-c3ccccc3)cc2)NC(=O)[C@H](Cc2ccc(C(=O)O)cc2)NC(=O)[C@H](Cc2cccc(C(F)(F)F)c2)NC(=O)[C@H](CC(=O)O)NC(=O)[C@H](Cc2ccc(OCC(=O)O)cc2)NC(=O)[C@H](CN2CCOCC2)NC(=O)CSC[C@@H](C(=O)N[C@@H](CCN)C(=O)NCCOCCOCC(=O)N[C@@H](CC(=O)NCCOCCOCC(=O)NCCCCCCCCCCCCC(=O)O)C(=O)O)NC(=O)[C@H](CO)NC(=O)[C@H](C(C)(C)O)NC(=O)[C@H](CC2CCCCC2)NC(=O)[C@H](CCN)NC1=O [Compound 2941] ({CH2CO}-[Ala(morpholin-4-yl)]Y(Carboxymethyl)D[Phe(3-CF3)][Phe(4-COOH)][Bip][Phe(4-COOH)][Orn][dL][Dab][Cha][Val(3-OH)]SC[Dab][AEEA][βAsp][AEEA]-{NH(CH2)12COOH}; thioether N-14)
2,75.8 nM,CC(C)C[C@H]1NC(=O)[C@H](CCCN)NC(=O)[C@H](Cc2ccc(C(=O)O)cc2)NC(=O)[C@H](Cc2ccc(-c3ccccc3)cc2)NC(=O)[C@H](Cc2ccc(C(=O)O)cc2)NC(=O)[C@H](Cc2cccc(C(F)(F)F)c2)NC(=O)[C@H](CC(=O)O)NC(=O)[C@H](Cc2ccc(OCC(=O)O)cc2)NC(=O)[C@H](CCN)NC(=O)CSC[C@@H](C(=O)N[C@@H](CCN)C(=O)NCCOCCOCC(=O)N[C@@H](CC(=O)NCCOCCOCC(=O)NCCCCCCCCCCCCC(=O)O)C(=O)O)NC(=O)[C@H](CO)NC(=O)[C@H](C(C)(C)O)NC(=O)[C@H](CC2CCCCC2)NC(=O)[C@H](CCN)NC1=O [Compound 2943] ({CH2CO}-[Dab]Y(Carboxymethyl)D[Phe(3-CF3)][Phe(4-COOH)][Bip][Phe(4-COOH)][Orn][dL][Dab][Cha][Val(3-OH)]SC[Dab][AEEA][βAsp][AEEA]-{NH(CH2)12COOH}; thioether N-14)
3,55 nM,CC(C)C[C@H]1NC(=O)[C@H](CCCN)NC(=O)[C@H](Cc2ccc(C(=O)O)cc2)NC(=O)[C@H](Cc2ccc(-c3ccccc3)cc2)NC(=O)[C@H](Cc2ccc(C(=O)O)cc2)NC(=O)[C@H](Cc2cccc(C(F)(F)F)c2)NC(=O)[C@H](CC(=O)O)NC(=O)[C@H](Cc2ccc(OCC(=O)O)cc2)NC(=O)[C@H]([C@H](C)N)NC(=O)CSC[C@@H](C(=O)N[C@@H](CCN)C(=O)NCCCCCCCCCCCCC(=O)O)NC(=O)[C@H](CO)NC(=O)[C@H](C(C)(C)O)NC(=O)[C@H](CC2CCCCC2)NC(=O)[C@H](CCN)NC1=O [Compound 2944] ({CH2CO}-[Abu(3S-NH2)]Y(Carboxymethyl)D[Phe(3-CF3)][Phe(4-COOH)][Bip][Phe(4-COOH)][Orn][dL][Dab][Cha][Val(3-OH)]SC[Dab]-{NH(CH2)12COOH}; thioether N-14)
4,64.4 nM,CC(C)C[C@H]1NC(=O)[C@H](CCCN)NC(=O)[C@H](Cc2ccc(C(=O)O)cc2)NC(=O)[C@H](Cc2ccc(-c3ccccc3)cc2)NC(=O)[C@H](Cc2ccc(C(=O)O)cc2)NC(=O)[C@H](Cc2cccc(C(F)(F)F)c2)NC(=O)[C@H](CC(=O)O)NC(=O)[C@H](Cc2ccc(OCC(=O)O)cc2)NC(=O)[C@H](CN2CCOCC2)NC(=O)CSC[C@@H](C(=O)N[C@@H](CCN)C(=O)NCCOCCOCCOCCOCCC(=O)NCCCCCCCCCCCCC(=O)O)NC(=O)[C@H](CC(=O)O)NC(=O)[C@H](C(C)(C)O)NC(=O)[C@H](CC2CCCCC2)NC(=O)[C@H](CCN)NC1=O [Compound 2947] ({CH2CO}-[Ala(morpholin-4-yl)]Y(Carboxymethyl)D[Phe(3-CF3)][Phe(4-COOH)][Bip][Phe(4-COOH)][Orn][dL][Dab][Cha][Val(3-OH)]DC[Dab][PEG4]-{NH(CH2)12COOH}; thioether N-14)
5,352 nM,CC(C)C[C@H]1NC(=O)[C@H](CCCN)NC(=O)[C@H](Cc2ccc(C(=O)O)cc2)NC(=O)[C@H](Cc2ccc(-c3ccccc3)cc2)NC(=O)[C@H](Cc2ccc(C(=O)O)cc2)NC(=O)[C@H](Cc2cccc(C(F)(F)F)c2)NC(=O)[C@H](CC(=O)O)NC(=O)[C@H](Cc2ccc(OCC(=O)O)cc2)NC(=O)[C@H](CN2CCOCC2)NC(=O)CSC[C@@H](C(=O)N[C@@H](CCN)C(=O)NCCOCCOCCOCCOCCC(=O)NCCCCCCCCCCCCCCC(=O)O)NC(=O)[C@H](CC(=O)O)NC(=O)[C@H](C(C)(C)O)NC(=O)[C@H](CC2CCCCC2)NC(=O)[C@H](CCN)NC1=O [Compound 2948] ({CH2CO}-[Ala(morpholin-4-yl)]Y(Carboxymethyl)D[Phe(3-CF3)][Phe(4-COOH)][Bip][Phe(4-COOH)][Orn][dL][Dab][Cha][Val(3-OH)]DC[Dab][PEG4]-{NH(CH2)14COOH}; thioether N-14)
6,305 nM,CC(C)C[C@H]1NC(=O)[C@H](CCCN)NC(=O)[C@H](Cc2ccc(C(=O)O)cc2)NC(=O)[C@H](Cc2ccc(-c3ccccc3)cc2)NC(=O)[C@H](Cc2ccc(C(=O)O)cc2)NC(=O)[C@H](Cc2cccc(C(F)(F)F)c2)NC(=O)[C@H](CC(=O)O)NC(=O)[C@H](Cc2ccc(OCC(=O)O)cc2)NC(=O)[C@H](CN2CCOCC2)NC(=O)CSC[C@@H](C(=O)N[C@@H](CCN)C(=O)NCCCCCCCCCCCCCCC(=O)O)NC(=O)[C@H](CC(=O)O)NC(=O)[C@H](C(C)(C)O)NC(=O)[C@H](CC2CCCCC2)NC(=O)[C@H](CCN)NC1=O [Compound 2949] ({CH2CO}-[Ala(morpholin-4-yl)]Y(Carboxymethyl)D[Phe(3-CF3)][Phe(4-COOH)][Bip][Phe(4-COOH)][Orn][dL][Dab][Cha][Val(3-OH)]DC[Dab]-{NH(CH2)14COOH}; thioether N-14)
7,52.4 nM,CCC[C@@H]1NC(=O)CSC[C@@H](C(=O)N[C@@H](CCN)C(=O)NCCOCCOCCOCCOCCC(=O)NCCCCCCCCCCCCC(=O)O)NC(=O)[C@H](Cc2c[nH]cn2)NC(=O)[C@H](C(C)(C)O)NC(=O)[C@H](CC2CCCCC2)NC(=O)[C@H](CCN)NC(=O)[C@@H](CC(C)C)NC(=O)[C@H](CCCN)NC(=O)[C@H](Cc2ccc(C(=O)O)cc2)NC(=O)[C@H](Cc2ccc(-c3ccccc3)cc2)NC(=O)[C@H](Cc2ccc(C(=O)O)cc2)NC(=O)[C@H](Cc2cccc(C(F)(F)F)c2)NC(=O)[C@H](CC(=O)O)NC(=O)[C@H](Cc2ccc(OCC(=O)O)cc2)NC1=O [Compound 2950] ({CH2CO}-[Nva]Y(Carboxymethyl)D[Phe(3-CF3)][Phe(4-COOH)][Bip][Phe(4-COOH)][Orn][dL][Dab][Cha][Val(3-OH)]HC[Dab][PEG4]-{NH(CH2)12COOH}; thioether N-14)
8,49.3 nM,CC(C)C[C@H]1NC(=O)[C@H](CCCN)NC(=O)[C@H](Cc2ccc(C(=O)O)cc2)NC(=O)[C@H](Cc2ccc(-c3ccccc3)cc2)NC(=O)[C@H](Cc2ccc(C(=O)O)cc2)NC(=O)[C@H](Cc2cccc(C(F)(F)F)c2)NC(=O)[C@H](CC(=O)O)NC(=O)[C@H](Cc2ccc(OCC(=O)O)cc2)NC(=O)[C@H](C)NC(=O)CSC[C@@H](C(=O)N[C@@H](CCN)C(=O)NCCOCCOCCOCCOCCC(=O)NCCCCCCCCCCCCC(=O)O)NC(=O)[C@H](Cc2c[nH]cn2)NC(=O)[C@H](C(C)(C)O)NC(=O)[C@H](CC2CCCCC2)NC(=O)[C@H](CCN)NC1=O [Compound 2953] ({CH2CO}-AY(Carboxymethyl)D[Phe(3-CF3)][Phe(4-COOH)][Bip][Phe(4-COOH)][Orn][dL][Dab][Cha][Val(3-OH)]HC[Dab][PEG4]-{NH(CH2)12COOH}; thioether N-14)
9,264 nM,CC(C)C[C@H]1NC(=O)[C@H](CCCN)NC(=O)[C@H](Cc2ccc(C(=O)O)cc2)NC(=O)[C@H](Cc2ccc(-c3ccccc3)cc2)NC(=O)[C@H](Cc2ccc(C(=O)O)cc2)NC(=O)[C@H](Cc2cccc(C(F)(F)F)c2)NC(=O)[C@H](CC(=O)O)NC(=O)[C@H](Cc2ccc(OCC(=O)O)cc2)NC(=O)[C@H](C)NC(=O)CSC[C@@H](C(=O)N[C@@H](CCN)C(=O)NCCOCCOCCOCCOCCC(=O)NCCCCCCCCCCCCCCC(=O)O)NC(=O)[C@H](Cc2c[nH]cn2)NC(=O)[C@H](C(C)(C)O)NC(=O)[C@H](CC2CCCCC2)NC(=O)[C@H](CCN)NC1=O [Compound 2954] ({CH2CO}-AY(Carboxymethyl)D[Phe(3-CF3)][Phe(4-COOH)][Bip][Phe(4-COOH)][Orn][dL][Dab][Cha][Val(3-OH)]HC[Dab][PEG4]-{NH(CH2)14COOH}; thioether N-14)
10,129 nM,CC(C)C[C@@H]1NC(=O)[C@H](Cc2c[nH]c3ccccc23)NC(=O)[C@H](CC(=O)O)NC(=O)[C@H](Cc2ccc(OCC(=O)O)cc2)NC(=O)[C@H](CCCCNC(=N)N)NC(=O)CSC[C@@H](C(=O)N[C@@H](C)C(=O)NCCOCCOCC(=O)N[C@@H](CCCCN)C(=O)NCCOCCOCC(=O)NCCCCCCCCCCCCCCC(=O)O)NC(=O)[C@H](CO)NC(=O)[C@H](C(C)C)NC(=O)[C@H](CC2CCCCC2)NC(=O)[C@H](CCN)NC(=O)[C@@H](CC(C)C)NC(=O)[C@H](CCCN)NC(=O)[C@H](C(C)C)NC(=O)[C@H](Cc2ccc(-c3ccccc3)cc2)NC1=O [Compound 3006] ({CH2CO}-[hArg]Y(Carboxymethyl)DWL[Bip]V[Orn][dL][Dab][Cha]VSCA[AEEA]K[AEEA]-{NH(CH2)14COOH}; thioether N-14)
11,180 nM,Cc1cccc(C[C@@H]2NC(=O)[C@H](CC(=O)O)NC(=O)[C@H](Cc3ccc(OCC(=O)O)cc3)NC(=O)[C@H](CN)NC(=O)CSC[C@@H](C(=O)N[C@@H](C)C(=O)N[C@@H](CCCCN)C(=O)NCC(=O)NCCCCCCCCCCCCCCC(=O)O)NC(=O)[C@H](C(C)O)NC(=O)[C@H](C(C)C)NC(=O)[C@H](CC3CCCCC3)NC(=O)[C@H](CCN)NC(=O)[C@@H](CC(C)C)NC(=O)[C@H](CCCN)NC(=O)[C@H](CCCNC(N)=O)NC(=O)[C@H](Cc3ccc(-c4ccccc4)cc3)NC(=O)[C@H](C(C)C)NC2=O)c1 (stereo partly drawn) [Compound 3007] ({CH2CO}-[Dap]Y(Carboxymethyl)D[Phe(3-Me)]V[Bip][Cit][Orn][dL][Dab][Cha]V[Thr(3ξ)]CAKG-{NH(CH2)14COOH}; thioether N-14)
